According to US20240208932A1, “ARYLAMINO DERIVATIVE ESTROGEN RECEPTOR MODULATOR AND USE THEREOF” (XIZANG HAISCO PHARMACEUTICAL CO., LTD., priority 2021, published 2024):

Experiments:
ERα = ERα (Homo sapiens (Human), UniProt P03372); assay: Degradation effect of compounds on ERα in MCF-7 and CAMA-1 cells (automated western blot, 24 h); type: cell-based; details: ERα degradation in MCF-7 cells; for DC50: 24 hours; for Dmax at 0.1 µM: MCF7, @100 nM
Method: 2. Degradation Effect of Compounds on ERα in MCF-7 and CAMA-1 Cells
Breast cancer cells MCF-7 and CAMA-1 were purchased from ATCC, the cell media were all EMEM+10% FBS, and the cells were cultured in an incubator at 37° C. under 5% CO2. On the first day, the cells in an exponential phase were collected. With a 10% css-FBS phenol red-free medium, the cell suspension was adjusted to a corresponding concentration, plated at 300000 cells/well and incubated for 3 days. After 3 days, the liquid in the well was aspirated, and a 10% css-FBS phenol red-free medium containing the compound to be tested was added and cultured in an incubator at 37° C. under 5% CO2. After 24 hours, 60 μl of RIPA lysis solution (containing 1× protease inhibitor cocktail) was added to each well, lysed on ice for 15 minutes, and then centrifuged at 4° C. for 10 minutes at 12000 g. The supernatant protein samples were collected, and protein quantification was performed by a BCA method. ERα was detected using fully automatic protein expression quantitative analysis, which involved diluting the protein to be tested to 1.5 mg/mL. 4 μL of the diluted protein samples were added to 1 μL of 5×Master Mix (provided in the kit), and the prepared samples were denatured at 95° C. for 5 min and placed on ice for use. Antibody Diluent II (provided in the kit) was used to dilute the primary antibody, in which the dilution ratios of ERα (CST, 13258S) and β-actin (CST, 3700) antibodies were 1:40 and 1:500, respectively, the secondary antibody was a 1:1 mixture of goat anti-mouse and goat anti-rabbit secondary antibodies, and the chromogenic solution was a 1:1 mixture of Lumino-S and Peroxide. The prepared reagents were successively added to an assay plate according to instructions of the kit and detected on an instrument. Western blot band processing was performed using “Compass for SW”, a fully automatic protein expression quantitative analysis software, in which western blot bands were automatically simulated based on signal values. The proportion of ERα relative to the solvent control at different drug concentrations according to equation (1), wherein Acompound was the relative peak area of ERα in the treated group, and Asolvent was the relative peak area of ERα in the solvent control group.
ERα%=Acompound/Asolvent×100 equation (1)
DC50 calculation: Calculation was performed according to equation (1), and using Graphpad Prism 8.0 software, the compound concentration DC50 values at which the degradation rate of ERα was 50% were calculated using a non-linear four-parameter function (Non linear regression (curve fit)) (Table 1).

MCF-7 cells = assay: Inhibitory effect of compounds on the proliferation of MCF-7 cells (CellTiter-Glo, 7 days); type: cell-based; details: Homo sapiens, MCF7, 168 h, 7 days incubation
Method: 1. Inhibitory Effect of Compounds on the Proliferation of MCF-7 Cells
Breast cancer cells MCF-7 were purchased from ATCC, the cell media were all EMEM+10% FBS, and the cells were cultured in an incubator at 37° C. under 5% CO2. On the first day, cells in the exponential growth phase were collected and cultured in a 10% css-FBS phenol red-free medium without cytokines for 3 days. After the completion of culture, a 10% css-FBS phenol red-free medium was used to adjust the cell suspension to the corresponding concentration and same was plated to 1000 cells/well. P-estradiol and compounds of different concentrations were added. A plate without adding any reagent was taken and used as Day0 with a reading value RLUday0, determined with CellTiter-Glo kit, placed in an incubator and incubated for 7 days. After the incubation was completed, according to operation instructions for a CellTiter-Glo kit (Promega, G7573), 50 μL of CellTiter-Glo solutions, which were pre-melted and equilibrated to room temperature, were added to each well, and the mixtures were uniformly mixed for 2 min using a microplate shaker. The plate was placed at room temperature for 10 min, and then […] signal values were measured using a microplate reader (PHERAstar FSX). Chemiluminescence readouts were processed using origin9.2 software and the DoseResp function was used to calculate the GIsovalue for the inhibitory activity of compounds on the proliferation of cells (Table 1). The results were processed according to equation (1), the inhibition rate of the compound at different concentrations was calculated, and the GI50 value of the compound with a proliferation rate of 50% was calculated using origin9.2 software, wherein RLUcompound was the readout of the treated group, and RLUcontrol was the average value of the solvent control group.
Growth %=(RLUcompound−RLUday0)/(RLUcontrol−RLUday0)×100 equation (1)

ER = details: clinical samples; cited from earlier work

Chain of ERα (P03372 whole entry): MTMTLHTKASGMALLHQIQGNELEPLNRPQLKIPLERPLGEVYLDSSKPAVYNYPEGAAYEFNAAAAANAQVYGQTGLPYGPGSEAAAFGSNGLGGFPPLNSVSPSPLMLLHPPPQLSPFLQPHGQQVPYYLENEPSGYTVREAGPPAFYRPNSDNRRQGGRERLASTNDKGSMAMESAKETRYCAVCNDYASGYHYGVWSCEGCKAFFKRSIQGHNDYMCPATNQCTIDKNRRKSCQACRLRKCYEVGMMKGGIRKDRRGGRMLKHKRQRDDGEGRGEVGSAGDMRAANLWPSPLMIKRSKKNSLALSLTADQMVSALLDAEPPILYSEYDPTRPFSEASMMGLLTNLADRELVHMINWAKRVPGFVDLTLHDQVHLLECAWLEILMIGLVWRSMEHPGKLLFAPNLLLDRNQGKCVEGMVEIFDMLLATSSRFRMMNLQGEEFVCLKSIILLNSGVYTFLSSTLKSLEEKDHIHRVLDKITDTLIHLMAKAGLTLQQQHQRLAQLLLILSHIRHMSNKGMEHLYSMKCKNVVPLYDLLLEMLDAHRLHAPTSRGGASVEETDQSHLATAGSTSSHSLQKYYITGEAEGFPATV

Compound `Cc1ccc2c3c([nH]c2c1)[C@@H](c1c(F)cc(N[C@H]2CCN(CCCF)C2)cc1F)N(CC(F)(F)CO)[C@H](C)C3` [Compound 8, 3-((1R,3R)-1-(2,6-difluoro-4-(((S)-1-(3-fluoropropyl)pyrrolidin-3-yl)amino)phenyl)-3,7-dimethyl-1,3,4,9-tetrahydro-2H-pyrido[3,4-b]indol-2-yl)-2,2-difluoropropan-1-ol] has a DC50 (ERα) of 0.594 nM and a Dmax at 0.1 µM (ERα) of 70%.
Work on `C#Cc1ccc2c3c([nH]c2c1)[C@@H](c1c(F)cc(NC2CN(CCCF)C2)cc1F)N(CC(F)(F)F)[C@H](C)C3` [Compound 51, N-(4-((1R,3R)-7-ethynyl-3-methyl-2-(2,2,2-trifluoroethyl)-2,3,4,9-tetrahydro-1H-pyrido[3,4-b]indol-1-yl)-3,5-difluorophenyl)-1-(3-fluoropropyl)azetidin-3-amine] yielded a DC50 (ERα) of 0.712 nM and a Dmax at 0.1 µM (ERα) of 68%.
Work on `C[C@@H]1Cc2c([nH]c3cc(F)ccc23)[C@@H](c2c(F)cc(N[C@H]3CCN(CCCF)C3)cc2F)N1CC(F)(F)CO` [Compound 31, 3-((1R,3R)-1-(2,6-difluoro-4-(((S)-1-(3-fluoropropyl)pyrrolidin-3-yl)amino)phenyl)-7-fluoro-3-methyl-1,3,4,9-tetrahydro-2H-pyrido[3,4-b]indol-2-yl)-2,2-difluoropropan-1-ol] yielded a DC50 (ERα) of 0.244 nM and a Dmax at 0.1 µM (ERα) of 77%.
Compound `C[C@@H]1Cc2c([nH]c3ccc(F)cc23)[C@@H](c2c(F)cc(N[C@H]3CCN(CCCF)C3)cc2F)N1CC(F)(F)CF` [Compound 38, (S)—N-(3,5-difluoro-4-((1R,3R)-6-fluoro-3-methyl-2-(2,2,3-trifluoropropyl)-2,3,4,9-tetrahydro-1H-pyrido[3,4-b]indol-1-yl)phenyl)-1-(3-fluoropropyl)pyrrolidin-3-amine] has a GI50 (MCF-7 cells) of less than 0.026 nM, a DC50 (ERα) of 1.7 nM and a Dmax at 0.1 µM (ERα) of 72%.
In the case of `Cc1ccc2[nH]c3c(c2c1)C[C@@H](C)N(CC(F)(F)CO)[C@@H]3c1c(F)cc(N[C@H]2CCN(CCCF)C2)cc1F` [Compound 49, 3-((1R,3R)-1-(2,6-difluoro-4-(((S)-1-(3-fluoropropyl)pyrrolidin-3-yl)amino)phenyl)-3,6-dimethyl-1,3,4,9-tetrahydro-2H-pyrido[3,4-b]indol-2-yl)-2,2-difluoropropan-1-ol], the GI50 (MCF-7 cells) is reported as less than 0.026 nM, the DC50 (ERα) is reported as 0.726 nM and the Dmax at 0.1 µM (ERα) is reported as 70%.
In the case of `C[C@]12CC[C@@H]3c4ccc(O)cc4C[C@@H](CCCCCCCCC[S+]([O-])CCCC(F)(F)C(F)(F)F)[C@H]3[C@@H]1CC[C@@H]2O` (some centres unmarked) [Fulvestrant], the ER degradation (ER) is given as “approximately 50%”.
`C[C@@H]1Cc2c([nH]c3cc(F)c(F)cc23)[C@@H](c2c(F)cc(N[C@H]3CCN(CCCF)C3)cc2F)N1CC(F)(F)CO` [Compound 35, 3-((1R,3R)-1-(2,6-difluoro-4-(((S)-1-(3-fluoropropyl)pyrrolidin-3-yl)amino)phenyl)-6,7-difluoro-3-methyl-1,3,4,9-tetrahydro-2H-pyrido[3,4-b]indol-2-yl)-2,2-difluoropropan-1-ol] gave a GI50 (MCF-7 cells) of less than 0.026 nM, a DC50 (ERα) of 0.269 nM and a Dmax at 0.1 µM (ERα) of 68%.
For `CC1Cc2c([nH]c3cc4c(cc23)CC4)C(c2c(F)cc(NC3CN(CCCF)C3)cc2F)N1CC(F)(F)F` (single isomer, unassigned) [Compound 22-1, N-(3,5-difluoro-4-(3-methyl-2-(2,2,2-trifluoroethyl)-2,3,4,6,7,9-hexahydro-1H-cyclobuta[f]pyrido[3,4-b]indol-1-yl)phenyl)-1-(3-fluoropropyl)azetidin-3-amine], the DC50 (ERα) was 1.13 nM and the Dmax at 0.1 µM (ERα) was 69%.
`C[C@@H]1Cc2c([nH]c3cccc(F)c23)[C@@H](c2c(F)cc(N[C@H]3CCN(CCCF)C3)cc2F)N1CC(F)(F)CO` [Compound 15, 3-((1R,3R)-1-(2,6-difluoro-4-(((S)-1-(3-fluoropropyl)pyrrolidin-3-yl)amino)phenyl)-5-fluoro-3-methyl-1,3,4,9-tetrahydro-2H-pyrido[3,4-b]indol-2-yl)-2,2-difluoropropan-1-ol] showed a DC50 (ERα) of 0.447 nM and a Dmax at 0.1 µM (ERα) of 72%.
